Data from patent US20060147924A1, “Population of nucleic acids including a subpopulation of lna oligomers” (priority 2002, published 2006).

Columns and labels:
3′-TGTATC = assay: Tm of duplexes of 6-mers with LNA 3′-TGTATC; assay type: binding; details: Table 8; duplexes 2.5 μM; 0.1 M NaCl, 10 mM Na-phosphate pH 7.0, 10 mM EDTA
Experimental: (§1) (entry 1) to 53.5° C. (entry 2) thus verifying the reduced strength of the intramolecular hydrogen bonds of the self complementary oligonucleotide. At the same time the oligonucleotides containing the SBC LNA monomers are able to hybridize to complementary DNA due to the increased binding efficiency of LNA-D and LNA-^2SU. Similarly as exemplified in Table 8 (see below) the Tm of a duplex between 2 complementary oligonucleotides containing e.g. 3 SBC LNA pairs (entry 3) is reduced to 59° C. from the corresponding non-SBC LNA duplex (82° C.-entry 1) while the single-stranded SBC LNA oligonucleotides still are capable to hybridize to complementary non-modified LNA oligonucleotides as well as DNA oligonucleotides with increased Tm.

3′-TG^2SUATC = assay: Tm of duplexes of 6-mers with SBC-LNA 3′-TG^2SUATC; assay type: binding; details: Table 8; duplexes 2.5 μM; 0.1 M NaCl, 10 mM Na-phosphate pH 7.0, 10 mM EDTA
Experimental: as §1

3′-^2SUG^2SUA^2SUC = assay: Tm of duplexes of 6-mers with SBC-LNA 3′-^2SUG^2SUA^2SUC; assay type: binding; details: Table 8; duplexes 2.5 μM; 0.1 M NaCl, 10 mM Na-phosphate pH 7.0, 10 mM EDTA
Experimental: as §1

3′-ctgtatcc = assay: Thermal denaturation (Tm) of duplexes with complementary DNA 3′-ctgtatcc; assay type: binding; details: Table 8; duplexes 2.5 μM; 0.1 M NaCl, 10 mM Na-phosphate pH 7.0, 10 mM EDTA
Experimental: The complexing properties of oligonucleotides containing new LNA monomers 1-3 were assessed. Comparative binding data from an 8-mer LNA sequence is shown in Table 4 as the melting temperatures against complementary single-stranded DNA. An exemplary sequence for this comparison is GACATAGG, which is the central part of a capture probe used for SNP detection in GluclVS7-7asA (A:a mismatch position). The thermal stabilities of reference DNA duplexes (entries 1-7, Table 4) can be directly compared with their LNA counterparts (entries 8-14). […] The average melting temperatures of DNA and LNA 8-mers against complementary DNAs typically differ by about 40° C. […] (i.e., entries 1 and 4). D-nucleosides may facilitate a B to A helix transition, because the A-type structure of an LNA:DNA duplex is more suitable for effective D:t pairing. This stabilizing effect is expected to be even more pronounced for LNA:RNA duplexes, which can be very useful for construction of antisense or other gene-silencing reagents. The mismatch discrimination ability of the D-nucleoside was also studied (entry 11).
The absorbance was monitored at 260 nm while raising the temperature at a rate of 1° C. per min. The melting temperatures (Tm values) of the duplexes were determined as the maximum of the first derivatives of the melting curves obtained.

[1] = test system: self complementary duplex; assay: Tm of self complementary duplexes of dual labeled SBC-LNA probes; assay type: binding; details: Table 7, duplexes 2 μM, 0.1 M NaCl, 10 mM Na-phosphate pH 7.0, 1 mM EDTA
Experimental: as §1

aagaggccagtg = assay: Tm of chimeric LNA-DNA 12-mers, Gluc53as-A, singly mismatched duplex; assay type: binding; details: for Tm (± 0.5° C.) of the duplexes with DNA oligonucleotide aagaggccagtg: Table 5, Gluc53as-A, singly mismatched, duplexes 2 μM, buffer as Table 4; for ΔTm between singly mismatched and perfect duplexes (Gluc53as-A): Table 5, value in brackets
Experimental: (§2) The thermal denaturation experiments were performed on a Perkin-Elmer UV/VIS spectrometer fitted with a PTP-6 Peltier temperature-programming element using a medium salt buffer solution (10 mM sodium phosphate, 100 mM sodium chloride, 0.1 mM EDTA, pH 7.0). […] The absorbance was monitored at 260 nm while raising the temperature at a rate of 1° C. per min. The melting temperatures (Tm values) of the duplexes were determined as the maximum of the first derivatives of the melting curves obtained.

aagagtccagtg = assay: Tm of chimeric LNA-DNA 12-mers, Gluc53as-A, perfect duplex; assay type: binding; details: Table 5, Gluc53as-A, duplexes 2 μM, buffer as Table 4
Experimental: as §2

caacatcccaca = assay: Tm of chimeric LNA-DNA 12-mers, HNFas128A-2, perfect duplex; assay type: binding; details: Table 5, HNFas128A-2, perfect duplex; duplexes 2 μM; buffer as Table 4
Experimental: as §2

caacaacccaca = assay: Tm of chimeric LNA-DNA 12-mers, HNFas128A-2, singly mismatched duplex; assay type: binding; details: for Tm (± 0.5° C.) of the duplexes with DNA oligonucleotide caacaacccaca: Table 5, HNFas128A-2, singly mismatched, duplexes 2 μM, buffer as Table 4; for ΔTm between singly mismatched and perfect duplexes (HNFas128A-2): Table 5, value in brackets
Experimental: as §2

3′-ACGGCCAC-5′ = assay: Tm of LNA:DNA and DNA:DNA 8-mer duplexes, single mismatch (Table 2); assay type: binding; details: for ΔTm: perfect match vs single mismatch
Description: (§3) It is often difficult to design probes and primers with the same range of melting temperature due to the variance in A/T and G/C content of the probing sites. Highly A/T rich regions typically give lower Tm values. Furthermore, if single mismatches are to be resolved, G/T mismatches are known to contribute little to ΔTm. As discussed above, the use of LNA is a desirable way to solve problems related to multiplex use of primers and probes. LNA offers the possibility to adjust Tm and increase the ΔTm at the same time. LNA increases Tm with 4-8° C./substitution and Increases ΔTm in many cases with several 100% (Table 2 and FIG. 22).

3′-ACGACCAC-5′ = assay: Tm of LNA:DNA and DNA:DNA 8-mer duplexes, perfect match (Table 2); assay type: binding
Description: as §3

With 5′-ACATAG the “Tm of the duplexes with 3′-TGTATC” value (3′-TGTATC) was 82 °C, the “Tm of the duplexes with 3′-TG^2SUATC” value (3′-TG^2SUATC) was 85 °C and the “Tm of the duplexes with 3′-^2SUG^2SUA^2SUC” value (shortened to “Tm … with 3′-^2SUG^2SUA^2SUC”) (3′-^2SUG^2SUA^2SUC) was 83 °C. The “Tm of the duplexes with 3′-ctgtatcc” value (3′-ctgtatcc) was 27 °C.

In the case of 5′-Fitc-taDDT^2SU^2SUta-EQL, the “Tm ^a of self complementary duplexes” value [1] is reported as 53.5 °C.

With “cAmCtgGAmCtctt (CACTGGACTCTT; mixed-case modified oligonucleotide, notation key not given here) [chimeric LNA-DNA 12-mer, Gluc53as-A, with LNA-A]” the “Tm (± 0.5° C.) of the duplexes with DNA oligonucleotide aagaggccagtg” value (aagaggccagtg) was 50.6 °C, the “ΔTm between singly mismatched and perfect duplexes (Gluc53as-A)” value (aagaggccagtg) was −10.9 °C and the “Tm (± 0.5° C.) of the complementary duplexes with DNA oligonucleotide aagagtccagtg” value (aagagtccagtg) was 61.5 °C.

In the case of tGtggGDTGttg, the “Tm (± 0.5° C.) of the complementary duplexes with DNA oligonucleotide caacatcccaca” value (caacatcccaca) is reported as 65.5 °C, the “Tm (± 0.5° C.) of the duplexes with DNA oligonucleotide caacaacccaca” value (caacaacccaca) is reported as 49.7 °C and the “ΔTm between singly mismatched and perfect duplexes (HNFas128A-2)” value (caacaacccaca) is reported as −15.8 °C.

In the case of “tGtggGATGttg (TGTGGGATGTTG; chemistry not given here) [chimeric LNA-DNA 12-mer, HNFas128A-2, with LNA-A]”, the “Tm (± 0.5° C.) of the complementary duplexes with DNA oligonucleotide caacatcccaca” value (caacatcccaca) is reported as 61.0 °C, the “Tm (± 0.5° C.) of the duplexes with DNA oligonucleotide caacaacccaca” value (caacaacccaca) is reported as 45.9 °C and the “ΔTm between singly mismatched and perfect duplexes (HNFas128A-2)” value (caacaacccaca) is reported as −15.1 °C.

With “5′-TGCTGGTG-3′ [DNA 8-mer, reference compound]” the “Tm of LNA:DNA Duplexes, Single mismatch 3′-ACGGCCAC-5′” value (3′-ACGGCCAC-5′) was 25 °C, the ΔTm (3′-ACGGCCAC-5′) was 10 °C and the “Tm of LNA:DNA Duplexes, Perfect match 3′-ACGACCAC-5′” value (3′-ACGACCAC-5′) was 35 °C.

For 5′-ACDTAG, the “Tm of the duplexes with 3′-TGTATC” value (3′-TGTATC) was 93 °C, the “Tm of the duplexes with 3′-TG^2SUATC” value (3′-TG^2SUATC) was 75 °C and the “Tm … with 3′-^2SUG^2SUA^2SUC” value (3′-^2SUG^2SUA^2SUC) was 73 °C. The “Tm of the duplexes with 3′-ctgtatcc” value (3′-ctgtatcc) was 37 °C.

In the case of 5′-Fitc-tDDDt^2S U^2SU^2SUa-EQL, the “Tm ^a of self complementary duplexes” value [1] is reported as 64.5 °C.

With 5′-TGCTGGTG-3′ [LNA 8-mer] the “Tm of LNA:DNA Duplexes, Single mismatch 3′-ACGGCCAC-5′” value (3′-ACGGCCAC-5′) was 45 °C, the ΔTm (3′-ACGGCCAC-5′) was 26 °C and the “Tm of LNA:DNA Duplexes, Perfect match 3′-ACGACCAC-5′” value (3′-ACGACCAC-5′) was 71 °C.

With cAmCtgGDmCtctt the “Tm (± 0.5° C.) of the duplexes with DNA oligonucleotide aagaggccagtg” value (aagaggccagtg) was 45.4 °C, the “ΔTm between singly mismatched and perfect duplexes (Gluc53as-A)” value (aagaggccagtg) was −19.9 °C and the “Tm (± 0.5° C.) of the complementary duplexes with DNA oligonucleotide aagagtccagtg” value (aagagtccagtg) was 65.3 °C.

With 5′-DCDTDG the “Tm of the duplexes with 3′-TGTATC” value (3′-TGTATC) was over 97 °C, the “Tm of the duplexes with 3′-TG^2SUATC” value (3′-TG^2SUATC) was 95 °C and the “Tm … with 3′-^2SUG^2SUA^2SUC” value (3′-^2SUG^2SUA^2SUC) was 59 °C. For the same compound, the “Tm of the duplexes with 3′-ctgtatcc” value (3′-ctgtatcc) was 55 °C.

With 5′-Fitc-tAAATTTTA-EQL the “Tm ^a of self complementary duplexes” value [1] was >90 (94-96) ° C and the “Tm ^a of self complementary duplexes” value ([1]; listed as Table 7 entry 1) was 90 °C.

In the case of `Nc1ncc2ncn([C@@H]3O[C@@]4(CO)CO[C@@H]3[C@@H]4O)c2n1` [Compound 23, (1S,3R,4R,7S)-3-(2-aminopurin-9-yl)-7-hydroxy-1-hydroxymethyl-2,5-dioxabicyclo[2.2.1]heptane], the melting point is reported as 227.5 to 229 °C (dec.).
